# Values of other authors, collected in patent EP0214616A2, “Acetylenic prostaglandins” (G.D. Searle & Co., priority 1985, dated 1987).
# Tested on: gastric secretion
# Conditions: at the highest dose tested (100ug/kg)
structure (smiles),measurement,value
CCCCC(C)(O)C/C=C/[C@H]1[C@H](O)CC(=O)[C@@H]1CCC#CCCC(=O)OC (mixture of isomers) [Example C90001],gastric antisecretory activity,devoid of gastric antisecretory activity
